Measurements published in patent publication US11192921B2 (priority 2017, dated 2021).
“And” between values parts separate entries of the source, which are not always exact repeats. Identical values can stand only once. No end group written: not given here.

What was measured:
Kunming mice [1] = conditions: mouse, in vivo
Female Kunming mice = assay type: in vivo; conditions: mouse, in vivo, ip
Kunming mice [2] = assay type: in vivo; conditions: mouse, in vivo

GCCSTPPCAVLYC (cysteine pairing not given here) [Conotoxin, reference compound]
cumulative foot licking time, Phase I (Kunming mice [1]): 50.38 ± 9.38
cumulative foot licking time, Phase II (Kunming mice [1]): 53.64 ± 15.32
Pain threshold (Female Kunming mice): 27.29 ± 0.48 s and 29.32 ± 0.18 s and 24.1 ± 0.28 s and 30.39 ± 0.28 s and 27.39 ± 0.28 s and 26.21 ± 0.38 s and 24.63 ± 0.12 s
Pain threshold (tail flick) (Kunming mice [2]): 2.23 ± 0.18 s and 2.32 ± 0.28 s and 2.21 ± 0.12 s and 2.31 ± 0.18 s and 2.12 ± 0.12 s and 2.63 ± 0.12 s
